Laboratory results reported in publication PMC8123395, “Aggregation and Its Influence on the Bioactivities of a Novel Antimicrobial Peptide, Temporin-PF, and Its Analogues” (International Journal of Molecular Sciences, 2021).
No end group written: not given here.

Columns and labels:
Format in all cases: cell-based
MRSA mature biofilm = settings: mature biofilm, 48 h
Description: (§1) MBIC and MBEC assays were performed as previously described with minor modifications. For the MBIC assay, a suspension of broth diluted bacteria culture (5 × 10^5 CFU/mL) was incubated with the peptide solutions at 37 °C for 24 h. For MBEC assay, 100 μL inoculum culture was seeded to a 96-well-flat-bottom plate and incubated at 37 °C for 48 h to obtain the mature biofilm. Afterwards, the plate was washed by sterile phosphate-buffered saline (PBS; Sigma-Aldrich, Gillingham, UK) twice and treated with a series peptide solution at 37 °C for 24 h. Then, all the plates were washed with PBS and stained by 100 μL 0.1% crystal violet solution (Sigma-Aldrich, Gillingham, UK), and further dissolved by 30% acetic acid (Sigma-Aldrich, Gillingham, UK). The absorbance of each well was recorded by Synergy HT plate reader (Biotech, Minneapolis, MN, USA) at 595 nm.

S. aureus biofilm = settings: biofilm, 24 h
Description: as §1

MRSA biofilm = settings: biofilm, 24 h
Description: as §1

S. aureus mature biofilm = settings: mature biofilm, 48 h
Description: as §1

S. aureus (NCTC 10788) = test: SYTOX Green stain uptake assay (membrane permeabilization); settings: peptide 10 µM, within 120 min, 37 °C, relative to 70% isopropanol-treated cells, three replicates
Description: Figure 10 Membrane permeabilization effect of TPF and the analogs (10 µM) on Gram-positive bacteria S. aureus was indicated by the uptake of SYTOX Green dye over 120 min. The error bar represents SD of three replicates.
A membrane permeability assay was conducted on S. aureus (NCTC 10788) and E.coli (NCTC 10418) using the SYTOX™ Green Nucleic Acid Stain (Thermo Fisher Scientific, Waltham, MA, USA) as described previously, with some modifications. For S. aureus, to obtain the fluorescence kinetics of membrane permeabilization, the bacterial suspension and peptide solutions, prepared in 5% tryptic soy broth (TSB) (v/v) in 0.85% NaCl solution (m/v), were mixed to give a final concentration at 10 µM in a black 96-well plate, and further incubated for 120 min at 37 °C. Subsequently, 5 µM SYTOX Green nucleic acid stain was added into each well and immediately detected by a fluorescent plate reader with excitation of 485 nm and emission of 528 nm. The total permeabilized cells of S. aureus were prepared by treating with 70% isopropanol and further resuspended in 5% TSB/0.85% NaCl solution after washing.

For LPLIAGLFGKIF-NH2 [des-Phe1 TPF], the MBEC (MRSA mature biofilm) was 32/32 µM, the MBIC (S. aureus biofilm) was 16 µM and the MBIC (MRSA biofilm) was 32/32 µM. For the same substance, the MBEC (S. aureus mature biofilm) was 32 µM and the membrane permeabilization (S. aureus (NCTC 10788)) was “over 50%”.
